Experimental findings from US20260102383A1, “LPAR1 Inhibitors” (AbbVie Inc., priority 2024, published 2026) are described below.

Read-outs that look alike come from different tables or passages of the source.

The target in this assay is T1, human LPAR1 (Homo sapiens, UniProt Q92633).
T1 construct: host or cells: TangoEDG2-bla U2OS cells
In words: Arrestin assay (Arrestin Reporter EDG2-bla U2OS), inhibition of LPA-stimulated signal. The conditions noted are these: TangoEDG2-bla U2OS cells expressing human LPAR1, 0.25 μM LPA. The assay is classed as cell-based. The essentials: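 TangoEDG2-bla U2OS cells (1×10^4/well, plated 18-20 h) were preincubated 1 h at 37 °C with compound (12-point, 3-fold, 10 μM to 0.00006 μM), then stimulated 3 h with 0.25 μM LPA final. LiveBLAzer FRET B/G 460/530 nm emission ratio gave % inhibition; IC50 from 4-parameter variable-slope fit.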

Setting [1] is: read-out: Arrestin Reporter EDG2-bla U2OS Human Merged IC50.

T1 sequence (Q92633 whole entry): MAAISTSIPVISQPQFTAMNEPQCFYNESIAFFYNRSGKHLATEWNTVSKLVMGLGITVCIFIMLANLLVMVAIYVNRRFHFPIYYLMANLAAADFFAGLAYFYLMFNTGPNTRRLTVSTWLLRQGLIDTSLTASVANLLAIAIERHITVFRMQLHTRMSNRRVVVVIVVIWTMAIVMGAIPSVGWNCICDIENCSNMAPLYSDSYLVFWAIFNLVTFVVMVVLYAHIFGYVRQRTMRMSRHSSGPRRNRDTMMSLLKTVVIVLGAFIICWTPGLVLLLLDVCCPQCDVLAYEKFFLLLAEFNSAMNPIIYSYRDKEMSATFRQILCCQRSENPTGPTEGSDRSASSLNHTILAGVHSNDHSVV

What is called IC50 is the concentration needed to halve the response being measured. Consider `CCO[C@H](CN1CCC(C(=O)Nc2ccc(Cl)cc2OC(F)F)(n2nccc2C(C)C)CC1)C(=O)O` [Compound 144, (2R)-3-[4-[[4-chloro-2-(difluoromethoxy)phenyl]carbamoyl]-4-(5-isopropylpyrazol-1-yl)-1-piperidyl]-2-ethoxy-propanoic acid], for which the IC50 under setting [1] was 0.0559 µM.
Same read-out and setting: the figure for `COC1CCC(C(CN2CCC(C(=O)Nc3ccc(Cl)cc3OC(F)F)(n3nccc3C(C)C)CC2)C(=O)O)CC1` (stereo not shown) [Compound 145, 3-[4-[[4-chloro-2-(difluoromethoxy)phenyl]carbamoyl]-4-(5-isopropylpyrazol-1-yl)-1-piperidyl]-2-(4-methoxycyclohexyl) propanoic acid] is 0.0409 µM; for `CC(C)c1ccnn1C1(C(=O)Nc2ccc(Cl)cc2OC(F)F)CCN(CC(CC#N)C(=O)O)CC1` (stereo not shown) [Compound 146, 2-[[4-[[4-chloro-2-(difluoromethoxy)phenyl]carbamoyl]-4-(5-isopropylpyrazol-1-yl)-1-piperidyl]methyl]-3-cyano-propanoic acid] it is 0.0156 µM.
`CC(C)c1ccnn1C1(C(=O)Nc2ccc(Cl)cc2OC(F)F)CCN(CC(C(=O)O)c2cnn(C)c2)CC1` (stereo not shown) [Compound 147, 3-[4-[[4-chloro-2-(difluoromethoxy)phenyl]carbamoyl]-4-(5-isopropylpyrazol-1-yl)-1-piperidyl]-2-(1-methylpyrazol-4-yl)propanoic acid]: the IC50 under setting [1] is 0.167 µM.
On the same count and under the same terms, then `CC(C)c1ccnn1C1(C(=O)Nc2ccc(Cl)cc2OC(F)F)CCN(C[C@H](C(=O)O)[C@H]2CCOC2)CC1` [Compound 148, (2R)-3-[4-[[4-chloro-2-(difluoromethoxy)phenyl]carbamoyl]-4-(5-isopropylpyrazol-1-yl)-1-piperidyl]-2-[(3R)-tetrahydrofuran-3-yl]propanoic acid], with 0.0504 µM; and `CC(C)c1c(F)cnn1C1(C(=O)Nc2ccc(Cl)cc2OC(F)F)CCN(CC2(C(=O)O)CCC(=O)CC2)CC1` [Compound 153, 1-[[4-[[4-chloro-2-(difluoromethoxy)phenyl]carbamoyl]-4-(4-fluoro-5-isopropyl-pyrazol-1-yl)-1-piperidyl]methyl]-4-oxo-cyclohexanecarboxylic acid], with 0.0304 µM; and `CC(C)c1ccnn1C1(C(=O)Nc2ccc(Cl)cc2OC(F)F)CCN(C[C@@H](C(=O)O)c2cnn(C)c2)CC1` [Compound 155, (2S)-3-[4-[[4-chloro-2-(difluoromethoxy)phenyl]carbamoyl]-4-(5-isopropylpyrazol-1-yl)-1-piperidyl]-2-(1-methylpyrazol-4-yl)propanoic acid], with 0.125 µM.
Same read-out and setting: then `COCC[C@@H](CN1CCC(C(=O)Nc2ccc(Cl)cc2OC(F)F)(n2nccc2C(C)C)CC1)C(=O)O` [Compound 156, (2S)-2-[[4-[[4-chloro-2-(difluoromethoxy)phenyl]carbamoyl]-4-(5-isopropylpyrazol-1-yl)-1-piperidyl]methyl]-4-methoxy-butanoic acid], with 0.0497 µM.
Same read-out and setting: then `COCC[C@H](CN1CCC(C(=O)Nc2ccc(Cl)cc2OC(F)F)(n2nccc2C(C)C)CC1)C(=O)O` [Compound 157, (2R)-2-[[4-[[4-chloro-2-(difluoromethoxy)phenyl]carbamoyl]-4-(5-isopropylpyrazol-1-yl)-1-piperidyl]methyl]-4-methoxy-butanoic acid], with 0.0532 µM; and `CC(C)c1c(F)cnn1C1(C(=O)Nc2ccc(Cl)cc2OC(F)F)CCN(C[C@@H](C(=O)O)C2CCOCC2)CC1` [Compound 158, (2.8)-3-[4-[[4-chloro-2-(difluoromethoxy)phenyl]carbamoyl]-4-(4-fluoro-5-isopropyl-pyrazol-1-yl)-1-piperidyl]-2-tetrahydropyran-4-yl-propanoic acid], with 0.046 µM.
For `CC(C)c1ccnn1C1(C(=O)Nc2ccc(Cl)cc2OC(F)F)CCN(C[C@H](C(=O)O)N2C[C@@H](C)O[C@H](C)C2)CC1` [Compound 159, (2R)-3-[4-[[4-chloro-2-(difluoromethoxy)phenyl]carbamoyl]-4-(5-isopropylpyrazol-1-yl)-1-piperidyl]-2-[(2R,6R)-2,6-dimethylmorpholin-4-yl]propanoic acid], under setting [1], the IC50 turned out to be 0.326 µM.
Same read-out and setting: then `CC(C)c1ccnn1C1(C(=O)Nc2ccc(Cl)cc2OC(F)F)CCN(C[C@@H](C(=O)O)N2C[C@@H](C)O[C@H](C)C2)CC1` [Compound 160, (2S)-3-[4-[[4-chloro-2-(difluoromethoxy)phenyl]carbamoyl]-4-(5-isopropylpyrazol-1-yl)-1-piperidyl]-2-[(2R,6R)-2,6-dimethylmorpholin-4-yl]propanoic acid], with 0.0869 µM; and `CC(C)c1c(F)cnn1C1(C(=O)Nc2ccc(Cl)cc2OC(F)F)CCN(C[C@]2(C(=O)O)CC[C@H](O)CC2)CC1` [Compound 161, (1r,4r)-1-[[4-[[4-chloro-2-(difluoromethoxy)phenyl]carbamoyl]-4-(4-fluoro-S-isopropyl-pyrazol-1-yl)-1-piperidyl]methyl]-4-hydroxy-cyclohexanecarboxylic acid], with 0.212 µM; and `CC(C)c1c(F)cnn1C1(C(=O)Nc2ccc(Cl)cc2OC(F)F)CCN(C[C@]2(C(=O)O)CC[C@@H](O)CC2)CC1` [Compound 162, (1s,4s)-1-[[4-[[4-chloro-2-(difluoromethoxy)phenyl]carbamoyl]-4-(4-fluoro-5-isopropyl-pyrazol-1-yl)-1-piperidyl]methyl]-4-hydroxy-cyclohexanecarboxylic acid], with 0.0518 µM.
On to `CC(C)c1ccnn1C1(C(=O)Nc2ccc(Cl)cc2OC(F)F)CCN([C@H]2C[C@](O)(C(=O)O)C2)CC1` [Compound 164, (1s,3s)-3-[4-[[4-chloro-2-(difluoromethoxy)phenyl]carbamoyl]-4-(5-isopropylpyrazol-1-yl)-1-piperidyl]-1-hydroxy-cyclobutanecarboxylic acid], for which, under setting [1], the IC50 is 0.0724 µM.
On the same count and under the same terms, then `CC(C)c1ccnn1C1(C(=O)Nc2ccc(Cl)cc2OC(F)F)CCN(C[C@@H](C(=O)O)N2CCOC(C)(C)C2)CC1` [Compound 165, (2S)-3-[4-[[4-chloro-2-(difluoromethoxy)phenyl]carbamoyl]-4-(5-isopropylpyrazol-1-yl)-1-piperidyl]-2-(2,2-dimethylmorpholin-4-yl)propanoic acid], with 0.137 µM.
The same measure, in the same setting: the figure for `CC(C)c1ccnn1C1(C(=O)Nc2ccc(Cl)cc2OC(F)F)CCN(C[C@H](C(=O)O)N2CCOC(C)(C)C2)CC1` [Compound 166] is 0.12 µM; for `CC(C)c1ccnn1C1(C(=O)Nc2ccc(Cl)cc2OC(F)F)CCN(C[C@@H](C(=O)O)N2C[C@H](C)O[C@@H](C)C2)CC1` [Compound 167, (2S)-3-[4-[[4-chloro-2-(difluoromethoxy)phenyl]carbamoyl]-4-(5-isopropylpyrazol-1-yl)-1-piperidyl]-2-[(2S,6S)-2,6-dimethylmorpholin-4-yl]propanoic acid] it is 0.108 µM; for `CC(C)c1ccnn1C1(C(=O)Nc2ccc(Cl)cc2OC(F)F)CCN(C[C@@H](CC#N)C(=O)O)CC1` [Compound 168, (2R)-2-[[4-[[4-chloro-2-(difluoromethoxy)phenyl]carbamoyl]-4-(5-isopropylpyrazol-1-yl)-1-piperidyl]methyl]-3-cyano-propanoic acid] it is 0.0288 µM.
In the case of `COC[C@@H](CN1CCC(C(=O)Nc2ccc(Cl)cc2OC(F)F)(n2ncc(F)c2C(C)C)CC1)C(=O)O` [Compound 169, (2R)-2-[[4-[[4-chloro-2-(difluoromethoxy)phenyl]carbamoyl]-4-(4-fluoro-5-isopropyl-pyrazol-1-yl)-1-piperidyl]methyl]-3-methoxy-propanoic acid], the IC50 (read-out: Arrestin Reporter EDG2-bla U2OS Human IC50) turned out to be 0.0262 µM.
For `CC(C)c1ccnn1C1(C(=O)Nc2ccc(Cl)cc2OC(F)F)CCN(CC(C(=O)O)C2CCOC(C)(C)C2)CC1` (stereo not shown) [Compound 171, 3-[4-[[4-chloro-2-(difluoromethoxy)phenyl]carbamoyl]-4-(5-isopropylpyrazol-1-yl)-1-piperidyl]-2-(2,2-dimethyltetrahydropyran-4-yl)propanoic acid], under setting [1], the IC50 is 0.0926 µM.
The same measure, in the same setting: then `CC(C)c1ccnn1C1(C(=O)Nc2ccc(Cl)cc2OC(F)F)CCN(C[C@@]2(C(=O)O)CCOC(C)(C)C2)CC1` [Compound 172, (4R)-4-[[4-[[4-chloro-2-(difluoromethoxy)phenyl]carbamoyl]-4-(5-isopropylpyrazol-1-yl)-1-piperidyl]methyl]-2,2-dimethyl-tetrahydropyran-4-carboxylic acid], with 0.071 µM.
The same measure, in the same setting: the figure for `CC(C)c1ccnn1C1(C(=O)Nc2ccc(Cl)cc2OC(F)F)CCN(C[C@]2(C(=O)O)CCOC(C)(C)C2)CC1` [Compound 173, (4S)-4-[[4-[[4-chloro-2-(difluoromethoxy)phenyl]carbamoyl]-4-(5-isopropylpyrazol-1-yl)-1-piperidyl]methyl]-2,2-dimethyl-tetrahydropyran-4-carboxylic acid] is 0.031 µM; for `CC(C)c1ccnn1C1(C(=O)Nc2ccc(Cl)cc2OC(F)F)CCN(C[C@]2(C(=O)O)CC[C@](C)(O)CC2)CC1` [Compound 175, (1r,4r)-1-[[4-[[4-chloro-2-(difluoromethoxy)phenyl]carbamoyl]-4-(5-isopropylpyrazol-1-yl)-1-piperidyl]methyl]-4-hydroxy-4-methyl-cyclohexanecarboxylic acid] it is 0.122 µM; for `CC1(C)OCc2cnn(C3(C(=O)Nc4ccc(Cl)cc4OC(F)F)CCN(C[C@H](C(=O)O)C4CCOCC4)CC3)c21` [Compound 176, (2R)-3-[4-[[4-chloro-2-(difluoromethoxy)phenyl]carbamoyl]-4-(6,6-dimethyl-4H-furo[3,4-c]pyrazol-1-yl)-1-piperidyl]-2-tetrahydropyran-4-yl-propanoic acid] it is 0.0955 µM.
